Test results as given in patent US9708259B2 (Hoffmann-La Roche Inc., priority 2013, dated 2017).
Changes are numbered by the printed parent chain. Like-named read-outs stand apart in the source and are kept apart here.

Assays:
human M1 = target: T1, human M1 (Homo sapiens, UniProt P11229); experiment: M1 PAM assay (FLIPR intracellular calcium), human M1; assay type: cell-based
T1 construct: expressed in transfected cells; host or cells: CHO cells
T1 sequence (P11229 1-460): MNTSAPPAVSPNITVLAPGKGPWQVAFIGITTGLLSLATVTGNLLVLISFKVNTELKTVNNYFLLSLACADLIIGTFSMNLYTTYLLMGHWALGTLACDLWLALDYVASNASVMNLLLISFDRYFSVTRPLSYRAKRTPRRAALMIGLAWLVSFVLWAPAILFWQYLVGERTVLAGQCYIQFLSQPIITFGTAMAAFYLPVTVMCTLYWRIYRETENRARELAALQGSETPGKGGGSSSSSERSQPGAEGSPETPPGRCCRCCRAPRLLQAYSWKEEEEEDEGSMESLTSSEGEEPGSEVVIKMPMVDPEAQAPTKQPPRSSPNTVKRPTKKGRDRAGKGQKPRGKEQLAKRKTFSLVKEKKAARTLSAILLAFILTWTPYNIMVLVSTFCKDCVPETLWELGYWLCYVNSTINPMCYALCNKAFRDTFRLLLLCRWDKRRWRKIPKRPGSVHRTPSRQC
Protocol: The assay study the effect of several concentrations of test compounds on basal or acetylcholine-stimulated Ca^2+ levels using FLIPR.
CHO human M1 are plated the day before the experiments at 2×10^5 cells/ml in PDL BioCoat 96 well black/clear plate (Becton 35 4640). The cells are grown at 37° C. and 5% CO2 in the following medium: F12 Nut Mix (Gibco 21765), 10% FCS heat inactivated (GIBCO 16000-044), 1% Pen Strep (Gibco,15140) and 200 μg/ml Geneticin (Gibco 11811). On the day of the experiment, the medium was removed and replaced by […] of dye loading buffer containing Hanks Balanced Salt solution (HBSS, 14065-049, Gibco) with 20 mM HEPES (Gibco 15630-056), 2 mM Probenicid (Sigma P8761), […] ester (Molecular Probes F-14202), 10% Pluronic acid Molecular Probes P-3000) pH=7.4 and incubated at 37° C. After 60 minutes extracellular dye was removed and the cells were washed five times with FLIPR buffer containing HBSS (Gibco 14065-049) with 20 mM HEPES (Gibco, 15630-056), 2 mM Probenicid (Sigma P8761) pre-warmed at 37° C. using and Ebml cell washer leaving […] of FLIPR buffer in each well. The cell plate and the diluted compounds (1% DMSO final concentration) are placed on the platform of the FLIPR and the door closed. A signal test to check background fluorescence and basal fluorescence signal is performed. Laser intensity is adjusted if necessary. Two minutes preincubation with the diluted test compounds is provide to determine any agonist activity on the M1 receptor by comparison to 30 nM Acetylcholine control. In order to determine any modulator activity the diluted compounds were added to cells and after two minutes preincubation, the EC20 of acetylcholine is added followed by another two minutes preincubation before the measurement of intracellular Ca^2+ with a FLIPR (Molecular Devices).

ratM1 = target: T2, ratM1 (Rattus norvegicus, UniProt P08482); experiment: M1 PAM assay (FLIPR intracellular calcium), rat M1; assay type: cell-based
T2 construct: expressed in transfected cells; host or cells: CHO cells (stated generally for the assay, not specifically for rat M1)
T2 sequence (P08482 1-460): T1 sequence (P11229 1-460) with A5V, T254S, P309S, R320K, A337G, I413V

[1] = CHO human M1 cells, FLIPR Ca2+, with EC20 of acetylcholine, first value of the cell, read-out: hM1 EC50
[2] = rat M1, FLIPR Ca2+, second value of the cell, read-out: ratM1 EC50

Row | Structure (SMILES) | EC50 (human M1; [1]) | further results
1 | Cc1cn(-c2ccc(Cn3cc(C(=O)N[C@H]4CCCC[C@@H]4O)c4c(F)c(F)ccc43)cc2)cn1 [Example 60, 4,5-difluoro-N-((1S,2S)-2-hydroxycyclohexyl)-1-(4-(4-methyl-1H-imidazol-1-yl)benzyl)-1H-indole-3-carboxamide] | 101 nM | EC50 (ratM1; [2]): 183 nM
2 | CNC(=O)c1ccc(Cn2cc(C(=O)NC3CCOCC3)c3c(F)cccc32)cn1 [Example 147, 4-fluoro-1-((6-(methylcarbamoyl)pyridin-3-yl)methyl)-N-(tetrahydro-2H-pyran-4-yl)-1H-indole-3-carboxamide] | 197 nM | EC50 (ratM1; [2]): 323 nM
3 | CNC(=O)c1ccc(Cn2cc(C(=O)N[C@H]3CCCC[C@@H]3O)c3c(F)cccc32)cc1 [Example 59, 4-fluoro-N-((1S,2S)-2-hydroxycyclohexyl)-1-(4-(methylcarbamoyl)benzyl)-1H-indole-3-carboxamide] | 4.33 nM | EC50 (ratM1; [2]): 4.35 nM
4 | CNC(=O)c1ccc(Cn2cc(C(=O)NC3CCS(=O)(=O)CC3)c3c(F)cccc32)cc1 [Example 125, N-(1,1-dioxothian-4-yl)-4-fluoro-1-[[4-(methylcarbamoyl)phenyl]methyl]indole-3-carboxamide] | 166 nM | EC50 (ratM1; [2]): 623 nM
5 | O=C(N[C@H]1CCCC[C@@H]1O)c1cn(Cc2ccc(F)c(F)c2)c2cccc(F)c12 [Example 41, 1-(3,4-difluorobenzyl)-4-fluoro-N-((1S,2S)-2-hydroxycyclohexyl)-1H-indole-3-carboxamide] |  | EC50 (human M1): 219 nM; EC50 (ratM1): 456 nM
6 | Cn1cc(-c2ccc(Cn3cc(C(=O)NC[C@H]4CCCO4)c4c(F)cccc43)cc2)cn1 [Example 10, (R)-4-fluoro-1-(4-(1-methyl-1H-pyrazol-4-yl)benzyl)-N-((tetrahydrofuran-2-yl)methyl)-1H-indole-3-carboxamide] | 256 nM | EC50 (ratM1; [2]): 398 nM
7 | Cn1cc(-c2ccc(Cn3cc(C(=O)NC4CCCCC4(F)F)c4c(F)cccc43)c(F)c2)cn1 (stereo not shown) [Example 25, N-(2,2-difluorocyclohexyl)-4-fluoro-1-(2-fluoro-4-(1-methyl-1H-pyrazol-4-yl)benzyl)-1H-indole-3-carboxamide] | 359 nM | 
8 | N#Cc1cccc(Cn2cc(C(=O)N[C@H]3CCCC[C@@H]3O)c3c(F)cccc32)c1 [Example 40, 1-(3-cyanobenzyl)-4-fluoro-N-((1S,2S)-2-hydroxycyclohexyl)-1H-indole-3-carboxamide] |  | EC50 (human M1): 476 nM
9 | CNC(=O)c1ccc(Cn2cc(C(=O)NC3CCOCC3C)c3c(F)cccc32)cc1F (stereo not shown) [Example 168, 4-fluoro-1-(3-fluoro-4-(methylcarbamoyl)benzyl)-N-(3-methyltetrahydro-2H-pyran-4-yl)-1H-indole-3-carboxamide] | 97 nM | 
10 | O=C(N[C@H]1CCCC[C@@H]1O)c1cn(Cc2ccc(OC(F)F)cc2)c2cccc(F)c12 [Example 29, 1-(4-(difluoromethoxy)benzyl)-4-fluoro-N-((1S,2S)-2-hydroxycyclohexyl)-1H-indole-3-carboxamide] |  | EC50 (human M1): 226 nM
11 | O=C(N[C@H]1CCCC[C@@H]1O)c1cn(Cc2cccc(Cl)c2)c2cccc(F)c12 [Example 39, 1-(3-chlorobenzyl)-4-fluoro-N-((1S,2S)-2-hydroxycyclohexyl)-1H-indole-3-carboxamide] |  | EC50 (human M1): 205 nM
12 | CNC(=O)c1ccc(Cn2cc(C(=O)NC3CCOC(C)(C)C3)c3c(F)cccc32)cc1F (stereo not shown) [Example 166, N-(2,2-dimethyltetrahydro-2H-pyran-4-yl)-4-fluoro-1-(3-fluoro-4-(methylcarbamoyl)benzyl)-1H-indole-3-carboxamide] | 35 nM | 
13 | O=C(N[C@H]1CCCC[C@@H]1O)c1cn(CC2CCN(c3ccccn3)CC2)c2cccc(F)c12 [Example 160, 4-Fluoro-N-((1S,2S)-2-hydroxycyclohexyl)-1-((1-(pyridin-2-yl)piperidin-4-yl)methyl)-1H-indole-3-carboxamide] | 196 nM | 
14 | CCOC(=O)Nc1ccc(Cn2cc(C(=O)N[C@H]3CCCC[C@@H]3O)c3c(F)cccc32)cc1 [Example 85, ethyl 4-((4-fluoro-3-((1S,2S)-2-hydroxycyclohexylcarbamoyl)-1H-indol-1-yl)methyl)phenylcarbamate] | 42.9 nM | 
15 | COc1ccc(Cn2cc(C(=O)N[C@H]3CCCC[C@@H]3O)c3c(F)cccc32)c(F)c1 [Example 28, 4-fluoro-1-(2-fluoro-4-methoxybenzyl)-N-((1S,2S)-2-hydroxycyclohexyl)-1H-indole-3-carboxamide] |  | EC50 (human M1): 272 nM
16 | Cn1cc(-c2ccc(Cn3cc(C(=O)N[C@H]4CCCC[C@@H]4O)c4c(F)c(F)ccc43)cc2)cn1 [Example 57, 4,5-difluoro-N-((1S,2S)-2-hydroxycyclohexyl)-1-(4-(1-methyl-1H-pyrazol-4-yl)benzyl)-1H-indole-3-carboxamide] | 139 nM | 
17 | CN(C)C(=O)c1cccc(Cn2cc(C(=O)N[C@H]3CCCC[C@@H]3O)c3c(F)cccc32)c1 [Example 90, 1-(3-(dimethylcarbamoyl)benzyl)-4-fluoro-N-((1S,2S)-2-hydroxycyclohexyl)-1H-indole-3-carboxamide] | 341 nM | 
18 | CS(=O)(=O)c1ccc(Cn2cc(C(=O)N[C@H]3CCCC[C@@H]3O)c3c(F)cccc32)cc1 [Example 82, 4-fluoro-N-((1S,2S)-2-hydroxycyclohexyl)-1-(4-(methylsulfonyl)benzyl)-1H-indole-3-carboxamide] | 435 nM | 
19 | O=C(N[C@H]1CCCC[C@@H]1O)c1cn(Cc2ccc(OC(F)(F)F)cc2)c2cccc(F)c12 [Example 34, 4-fluoro-N-((1S,2S)-2-hydroxycyclohexyl)-1-(4-(trifluoromethoxy)benzyl)-1H-indole-3-carboxamide] |  | EC50 (human M1): 342 nM
20 | NC(=O)c1cccc(Cn2cc(C(=O)N[C@H]3CCCC[C@@H]3O)c3c(F)cccc32)c1 [Example 81, 1-(3-carbamoylbenzyl)-4-fluoro-N-((1S,2S)-2-hydroxycyclohexyl)-1H-indole-3-carboxamide] | 351 nM | 
21 | CNC(=O)c1ccc(Cn2cc(C(=O)NC3CCCCC3(F)F)c3c(F)cccc32)cc1F (stereo not shown) [Example 165, N-(2,2-difluorocyclohexyl)-4-fluoro-1-(3-fluoro-4-(methy7lcarbamoyl)benzyl)-1H-indole-3-carboxamide] | 43 nM | 
22 | CNC(=O)c1cccc(Cn2cc(C(=O)N[C@H]3CCCC[C@@H]3O)c3c(F)cccc32)c1 [Example 89, 4-fluoro-N-((1S,2S)-2-hydroxycyclohexyl)-1-(3-(methylcarbamoyl)benzyl)-1H-indole-3-carboxamide] | 319 nM | 
23 | CNC(=O)c1ccc(Cn2cc(C(=O)NC3CCSCC3)c3c(F)cccc32)cc1F [Example 167, 4-fluoro-1-(3-fluoro-4-(methylcarbamoyl)benzyl)-N-(tetrahydro-2H-thiopyran-4-yl)-1H-indole-3-carboxamide] | 47 nM | 
24 | Cn1cc(-c2ccc(Cn3nc(C(=O)NC4CCOCC4)c4c(F)cccc43)cc2)cn1 [Example 69, 4-fluoro-1-(4-(1-methyl-1H-pyrazol-4-yl)benzyl)-N-(tetrahydro-2H-pyran-4-yl)-1H-indazole-3-carboxamide] | 344 nM | 
25 | Cn1cc(-c2cccc(Cn3cc(C(=O)N[C@H]4CCCC[C@@H]4O)c4c(F)cccc43)c2)cn1 [Example 35, 4-fluoro-N-((1S,2S)-2-hydroxycyclohexyl)-1-(3-(1-methyl-1H-pyrazol-4-yl)benzyl)-1H-indole-3-carboxamide] | 226 nM | 
